Results published in PubChem BioAssay (NCI).
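At the GI50, growth is halved. TGI denotes the concentration required for complete inhibition of growth.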

How the values were obtained:
Test in all cases: growth of human tumour cells (NCI), 384-well format
LOX IMVI melanoma = tested on: LOX IMVI melanoma
M14 melanoma = tested on: M14 melanoma
EKVX NSCLC = tested on: EKVX NSCLC
A549 NSCLC = tested on: A549 NSCLC
SK-MEL-28 melanoma = tested on: SK-MEL-28 melanoma
A498 renal = tested on: A498 renal
RPMI-8226 leukemia = tested on: RPMI-8226 leukemia
SN12C renal = tested on: SN12C renal
HT29 colon = tested on: HT29 colon
SF-539 CNS = tested on: SF-539 CNS
NCI-H460 NSCLC = tested on: NCI-H460 NSCLC
OVCAR-5 ovarian = tested on: OVCAR-5 ovarian
SF-268 CNS = tested on: SF-268 CNS
NCI-H226 lung = tested on: NCI-H226 lung
HCC-2998 colon = tested on: HCC-2998 colon
SF-295 CNS = tested on: SF-295 CNS
SW-620 colon = tested on: SW-620 colon
SNB-75 CNS = tested on: SNB-75 CNS
NCI/ADR-RES ovarian = tested on: NCI/ADR-RES ovarian
UO-31 renal = tested on: UO-31 renal
HS 578T breast = tested on: HS 578T breast
PC-3 prostate = tested on: PC-3 prostate
U251 glioblastoma = tested on: U251 glioblastoma
MDA-MB-435 melanoma = tested on: MDA-MB-435 melanoma
UACC-257 melanoma = tested on: UACC-257 melanoma
MDA-MB-231 breast = tested on: MDA-MB-231 breast
SK-OV-3 ovarian = tested on: SK-OV-3 ovarian
IGROV1 ovarian = tested on: IGROV1 ovarian
CCRF-CEM leukemia = tested on: CCRF-CEM leukemia
786-0 renal = tested on: 786-0 renal
HOP-62 NSCLC = tested on: HOP-62 NSCLC
OVCAR-3 ovarian = tested on: OVCAR-3 ovarian
ACHN renal = tested on: ACHN renal
MDA-MB-468 breast = tested on: MDA-MB-468 breast
UACC-62 melanoma = tested on: UACC-62 melanoma
TK-10 renal = tested on: TK-10 renal
NCI-H322M lung = tested on: NCI-H322M lung
HCT-15 colon = tested on: HCT-15 colon
MOLT-4 leukemia = tested on: MOLT-4 leukemia
SK-MEL-5 melanoma = tested on: SK-MEL-5 melanoma
BT-549 breast = tested on: BT-549 breast
DU-145 prostate = tested on: DU-145 prostate
COLO 205 colon = tested on: COLO 205 colon
HCT-116 colon = tested on: HCT-116 colon
OVCAR-4 ovarian = tested on: OVCAR-4 ovarian
SNB-19 CNS = tested on: SNB-19 CNS
MCF7 breast = tested on: MCF7 breast
KM12 colon = tested on: KM12 colon
HL-60(TB) leukemia = tested on: HL-60(TB) leukemia
HOP-92 NSCLC = tested on: HOP-92 NSCLC
K-562 leukemia = tested on: K-562 leukemia
CAKI-1 renal = tested on: CAKI-1 renal
T-47D breast = tested on: T-47D breast
NCI-H23 lung = tested on: NCI-H23 lung
MALME-3M melanoma = tested on: MALME-3M melanoma
NCI-H522 lung = tested on: NCI-H522 lung
RXF 393 renal = tested on: RXF 393 renal
OVCAR-8 ovarian = tested on: OVCAR-8 ovarian

With `O=C1[C@H](Cc2ccc(O)cc2)N2C(=O)CCN(C(=O)NCc3ccccc3)[C@H]2CN1Cc1cccc2ccccc12` the GI50 (LOX IMVI melanoma) was 1.15 µM, the TGI (LOX IMVI melanoma) was 5.36 µM and the GI50 (M14 melanoma) was 2.78 µM. The TGI (M14 melanoma) was 12.4 µM, the GI50 (EKVX NSCLC) was 6.96 µM and the TGI (EKVX NSCLC) was 30.7 µM. For the same compound, the GI50 (A549 NSCLC) was 1.83 µM, the TGI (A549 NSCLC) was 13.8 µM and the GI50 (SK-MEL-28 melanoma) was 1.98 µM. It also gave a TGI (SK-MEL-28 melanoma) of 11.4 µM, a GI50 (A498 renal) of 2.9 µM and a TGI (A498 renal) of 9.62 µM. It also gave a GI50 (RPMI-8226 leukemia) of 2.03 µM, a TGI (RPMI-8226 leukemia) of 12.3 µM and a GI50 (SN12C renal) of 2.78 µM. It also gave a TGI (SN12C renal) of 16.8 µM, a GI50 (HT29 colon) of 3.17 µM and a TGI (HT29 colon) of 15.8 µM. The GI50 (SF-539 CNS) was 0.564 µM, the TGI (SF-539 CNS) was 9.79 µM and the GI50 (NCI-H460 NSCLC) was 0.858 µM. The TGI (NCI-H460 NSCLC) was 5.2 µM, the GI50 (OVCAR-5 ovarian) was 1.44 µM and the TGI (OVCAR-5 ovarian) was 9.66 µM. The GI50 (SF-268 CNS) was 0.287 µM, the TGI (SF-268 CNS) was 0.792 µM and the GI50 (NCI-H226 lung) was 2.95 µM. For the same compound, the TGI (NCI-H226 lung) was 11.1 µM, the GI50 (HCC-2998 colon) was 2.1 µM and the TGI (HCC-2998 colon) was 15.3 µM. It also gave a GI50 (SF-295 CNS) of 3.79 µM, a TGI (SF-295 CNS) of 13.7 µM and a GI50 (SW-620 colon) of 7.63 µM. The TGI (SW-620 colon) was over 100 µM, the GI50 (SNB-75 CNS) was 0.421 µM and the TGI (SNB-75 CNS) was 2.23 µM. The GI50 (NCI/ADR-RES ovarian) was over 100 µM, the TGI (NCI/ADR-RES ovarian) was over 100 µM and the GI50 (UO-31 renal) was 16.1 µM. It also gave a TGI (UO-31 renal) of 33.3 µM, a GI50 (HS 578T breast) of 0.182 µM and a TGI (HS 578T breast) of 0.77 µM. It also gave a GI50 (PC-3 prostate) of 1.74 µM, a TGI (PC-3 prostate) of 9.23 µM and a GI50 (U251 glioblastoma) of 0.578 µM. For the same compound, the TGI (U251 glioblastoma) was 11.2 µM, the GI50 (MDA-MB-435 melanoma) was 4.85 µM and the TGI (MDA-MB-435 melanoma) was 17.7 µM. The GI50 (UACC-257 melanoma) was 3.45 µM, the TGI (UACC-257 melanoma) was 14 µM and the GI50 (MDA-MB-231 breast) was 0.556 µM. For the same compound, the TGI (MDA-MB-231 breast) was 12 µM, the GI50 (SK-OV-3 ovarian) was 1.66 µM and the TGI (SK-OV-3 ovarian) was 10.3 µM. It also gave a GI50 (IGROV1 ovarian) of 0.353 µM, a TGI (IGROV1 ovarian) of 2.49 µM and a GI50 (CCRF-CEM leukemia) of 1.33 µM. The TGI (CCRF-CEM leukemia) was 7.73 µM, the GI50 ([…]-0 renal) was 2.76 µM and the TGI (786-0 renal) was 16.9 µM. For the same compound, the GI50 (HOP-62 NSCLC) was 2.99 µM, the TGI (HOP-62 NSCLC) was 11.9 µM and the GI50 (OVCAR-3 ovarian) was 0.632 µM. It also gave a TGI (OVCAR-3 ovarian) of 6.89 µM, a GI50 (ACHN renal) of 10.7 µM and a TGI (ACHN renal) of 37.7 µM. The GI50 (MDA-MB-468 breast) was 3.46 µM, the TGI (MDA-MB-468 breast) was 15.6 µM and the GI50 (UACC-62 melanoma) was 1.35 µM. For the same compound, the TGI (UACC-62 melanoma) was 8.06 µM, the GI50 (TK-10 renal) was 6.57 µM and the TGI (TK-10 renal) was 24.1 µM. It also gave a GI50 (NCI-H322M lung) of 3.72 µM, a TGI (NCI-H322M lung) of 19.1 µM and a GI50 (HCT-15 colon) of 18.9 µM. The TGI (HCT-15 colon) was 82.9 µM, the GI50 (MOLT-4 leukemia) was 0.319 µM and the TGI (MOLT-4 leukemia) was 1.19 µM. The GI50 (SK-MEL-5 melanoma) was 1.33 µM, the TGI (SK-MEL-5 melanoma) was 4.11 µM and the GI50 (BT-549 breast) was 1.28 µM. It also gave a TGI (BT-549 breast) of 11.6 µM, a GI50 (DU-145 prostate) of 4.25 µM and a TGI (DU-145 prostate) of 17.1 µM. It also gave a GI50 (COLO 205 colon) of 0.662 µM, a TGI (COLO 205 colon) of 10.2 µM and a GI50 (HCT-116 colon) of 0.738 µM. It also gave a TGI (HCT-116 colon) of 11.8 µM, a GI50 (OVCAR-4 ovarian) of 2.92 µM and a TGI (OVCAR-4 ovarian) of 17.2 µM. It also gave a GI50 (SNB-19 CNS) of 0.678 µM, a TGI (SNB-19 CNS) of 21.8 µM and a GI50 (MCF7 breast) of 5.44 µM. It also gave a TGI (MCF7 breast) of 20 µM, a GI50 (KM12 colon) of 2.82 µM and a TGI (KM12 colon) of 13.6 µM. For the same compound, the GI50 (HL-60(TB) leukemia) was 3.98 µM, the TGI (HL-60(TB) leukemia) was 15 µM and the GI50 (HOP-92 NSCLC) was 0.386 µM. For the same compound, the TGI (HOP-92 NSCLC) was 1.88 µM, the GI50 (K-562 leukemia) was 0.828 µM and the TGI (K-562 leukemia) was 14.1 µM. It also gave a GI50 (CAKI-1 renal) of 2.15 µM, a TGI (CAKI-1 renal) of 5.94 µM and a GI50 (T-47D breast) of 0.441 µM. The TGI (T-47D breast) was 3.68 µM, the GI50 (NCI-H23 lung) was 4.97 µM and the TGI (NCI-H23 lung) was 17.7 µM. For the same compound, the GI50 (MALME-3M melanoma) was 1.24 µM, the TGI (MALME-3M melanoma) was 5.89 µM and the GI50 (NCI-H522 lung) was 0.518 µM. The TGI (NCI-H522 lung) was 12.6 µM, the GI50 (RXF 393 renal) was 3.22 µM and the TGI (RXF 393 renal) was 14.6 µM. For the same compound, the GI50 (OVCAR-8 ovarian) was 1.35 µM and the TGI (OVCAR-8 ovarian) was 11.9 µM.
